Measurements: US10478501B2, “Method of treating disorders using a pharmaceutical composition of oligopeptides” (Merck Patent GmbH, priority 2011, dated 2019)

Columns and labels:
[1] = test system: H460; assay: Cellular radiosensitivity by clonogenic cell survival assay, H460; type: cell-based, human; details: combined with γ-radiation, given 1 h before and continued 23 h after irradiation
Procedure: (§1) Methods: Three non-small cell lung carcinoma lines (NSCLCs) (H460, A549 and H1299) and three head and neck squamous cell carcinoma lines (HNSCCs) (FaDu, SCC-15 and SCC-25) cell lines were used for in vitro experiments. Of these, H460 and FaDu were used for in vivo testing when grown as xenografts in nude mice. The effects of cilengitide (1-50 μg/ml, 24 h) on in vitro cell viability was determined by MTS assay and on cellular radiosensitivity by clonogenic cell survival assay after exposing the cells to graded single doses of γ-radiation with or without cilengitide (given 1 h before and continued for 23 h after irradiation). In vivo effect of cilengitide on radioresponse of xenografts was assessed by tumor growth delay. When tumor xenografts reached 7 mm in diameter cilengitide treatment (30 or 60 mg/d/5 or 10 days) was initiated followed by a single dose of 15 Gy local radiation (using ^137Cs γ-ray source), when the tumors reached 8 mm.

[2] = test system: MDA-MB-231 breast cancer bone metastases; assay: Experimental breast cancer bone metastases in nude rats: DCE-MRI parameters amplitude A and kep; type: in vivo, nude rats (RNU strain)
Procedure: (§2) Nude rats (RNU strain) are obtained from Harlan-Winkelmann GmbH (Borchen, Germany) at the age of six weeks and housed in a specific pathogen-free environment in a mini barrier system of the central animal facility. Animals are kept under controlled conditions (21±2° C. room temperature, 60% humidity, 12 h light-dark rhythm) and offered autoclaved food and water ad libitum. Sub-confluent MDAMB-231 cells are harvested using 0.05% Trypsin-EDTA (Gibco®; Invitrogen, Karlsruhe, Germany) counted on a Neubauer's chamber and resuspended in RPMI-1640 to a final concentration of 10^5 cells in 200 μl. Rats are anesthetized using a mixture of nitrous oxide (1 l/min), oxygen (0.5 l/min) and isoflurane (1.5 vol. %). Arterial branches of the right hind leg are dissected and 10^5 cells injected into the superficial epigastric artery as described previously.^28 Bone metastases established and are observed exclusively in the femur, tibia and fibula of the right hind leg. 30 days after cancer cell transplantation, rats (n=24) are randomly divided into two groups, one group receiving the cyclic RGD-peptide inhibitor of αvβ3/αvβ5 integrins (cilengitide, EMD 121974^14, 17, 29; Merck, Darmstadt, Germany) intraperitoneally five times per week (75 mg/kg; n=12 rats) and the other, sham-treated group, serving as a control (n=12 rats). The observation period of all animals is 55 days and no rat in the study dies ahead of schedule.
(§3) After the inoculation of cancer cells each rat is imaged at days 30, 35, 45 and 55 using (i) a flat-panel equipped volumetric computed tomograph (Volume CT, Siemens, Germany) and (ii) a 1.5T clinical magnetic resonance scanner (Symphony, Siemens, Erlangen, Germany) equipped with a home-built receive-transmit coil (cylindrical volume resonator with an inner diameter of 83 mm and a usable length of 120 mm). Prior to in vivo imaging with VCT and MRI, rats are anesthetized with nitrous oxide, oxygen and isoflurane as described above.
(§4) T2-weighted imaging is performed using a turbo spin echo sequence (orientation axial, TR 3240 ms, TE 81 ms, matrix 152×256, FOV 90×53.4 mm^2, slice thickness 1.5 mm, 3 averages, scan time 3 min 40 s). For dynamic contrast-enhanced MRI, a saturation recovery turbo flash sequence through the largest diameter of the tumor (orientation axial, TR 373 ms, TE 1.86 ms, matrix 192×144, FOV 130×97.5 mm, slice thickness 5 mm, measurements 512, averages 1, scan time 6 min 55 s) is used. After 20 s baseline, 0.1 mmol/kg Gd-DTPA (Magnevist; Bayer Schering Pharma, Berlin, Germany) is intravenously infused for a time period of 10 s.
(§5) Unenhanced VCT images and MRI-acquired T2-weighted images are analyzed using the Medical Imaging Interaction Toolkit (MITK, Heidelberg, Germany) to determine volumes of osteolytic lesions and soft tissue components, respectively. DCE-MRI acquired data is analyzed using the Dynalab workstation (Mevis Research, Bremen, Germany) according to the two-compartment model of Brix to determine the parameters amplitude A and exchange rate constant kep, as described.^23, 30 Briefly, the injected contrast media is distributed in both compartments (intravascular space and extravascular, interstitial space). The accumulation of contrast agent in these compartments over time is characterized by the amplitude A (associated with blood volume), whereas the exchange of contrast agent between the intravascular space and the interstitial space is characterized by the exchange rate constant kep (associated with vessel permeability). For determination of the respective values of the amplitude A and kep of bone metastases in our study, a region of interest is placed around the soft tissue component on color maps for A and kep, respectively, using the Dynalab workstation (Mevis Research, Bremen, Germany). […]

[3] = test system: MDA-MB-231 breast cancer bone metastases; assay: Experimental breast cancer bone metastases in nude rats: volumes of osteolytic lesions and soft tissue components by VCT and MRI; type: in vivo, nude rats (RNU strain); details: for Mean relative values of the OL (osteolytic lesion) volumes, increase compared to initial values at day 30 / Mean relative STC (soft tissue component) volume, increase compared to initial values at day 30: 75 mg/kg i.p. five times per week from day 30
Procedure: as §2, §3
VCT imaging is obtained using the following parameters: tube voltage 80 kV, tube current 50 mA, scan time 51 s, rotation speed 10 s, frames per second 120, matrix 512×512, and slice thickness 0.2 mm. Image reconstructions are performed using a modified FDK (Feldkamp Davis Kress) cone beam reconstruction algorithm (kernel H80a; Afra, Erlangen, Germany).
as §4
as §5, with “permeability).” for “permeability). For determination of the respective values of the amplitude A and kep of bone metastases in our study, a region of interest is placed around the soft tissue component on color maps for A and kep, respectively, using the Dynalab workstation (Mevis Research, Bremen, Germany).”

[4] = test system: H1299; assay: In vitro cell viability by MTS assay, H1299; type: cell-based, human; details: 5 μg/ml, 24 h
Procedure: as §1

[5] = test system: U251 MG; assay: U251 MG xenograft orthotopic brain model in nude rat, cilengitide with radiation; type: in vivo; details: for Tumor volume (mm^3) median (histologic, Alu ISH): median (range)
Procedure: Synergistic Effect of the Combination of Cilengitide with Radiation in U251 MG Xenograft Orthotopic Brain Model in Nude Rat Caspase 3 Staining (Shown in FIG. 17) [table] RT is radiotherapy. Single dose. EMD is cilengitide. Single dose.

[6] = EMD (cilengitide) single dose + RT single dose, Control 41, RT 113, listed as EMD + RT

CC(C)[C@H]1C(=O)N[C@@H](CCCN=C(N)N)C(=O)NCC(=O)N[C@@H](CC(=O)O)C(=O)N[C@H](Cc2ccccc2)C(=O)N1C [Cilengitide, cyclo-(Arg-Gly-Asp-DPhe-NMeVal)]
radiosensitivity enhancement factor [1]: 1.35
DCE-MRI parameter exchange rate constant kep, mean relative value ([2]; day 35 (controls 86%; p>0.05)): 69 % of initial value
DCE-MRI parameter amplitude A, mean relative value ([2]; day 35 post inoculation (controls 106%; p>0.05)): 97 % of initial value
DCE-MRI parameter exchange rate constant kep, mean relative value ([2]; day 45 (controls 63%; p>0.05)): 88 % of initial value
DCE-MRI parameter amplitude A, mean relative value ([2]; day 45 (controls 125%; p<0.05)): 102 % of initial value
DCE-MRI parameter exchange rate constant kep, mean relative value ([2]; day 55 (controls 40%; p<0.05)): 72 % of initial value
DCE-MRI parameter amplitude A, mean relative value ([2]; day 55 (controls 105%; p<0.05)): 93 % of initial value
Mean relative values of the OL (osteolytic lesion) volumes, increase compared to initial values at day 30 ([3]; day 35 (control 1.9 fold)): 1.5 fold
Mean relative STC (soft tissue component) volume, increase compared to initial values at day 30 ([3]; day 35 (control 2.3 fold)): 2.2 fold
Mean relative values of the OL (osteolytic lesion) volumes, increase compared to initial values at day 30 ([3]; day 45 (control 4.5 fold, p<0.05)): 2.4 fold
Mean relative STC (soft tissue component) volume, increase compared to initial values at day 30 ([3]; day 45 (control 10.4 fold, p<0.05)): 4.9 fold
Mean relative values of the OL (osteolytic lesion) volumes, increase compared to initial values at day 30 ([3]; day 55 (control 9.7 fold, p<0.01)): 3.5 fold
Mean relative STC (soft tissue component) volume, increase compared to initial values at day 30 ([3]; day 55 (control 22.5 fold, p<0.01)): 6.3 fold
rats showing new bone formation under therapy as imaged by VCT ([3]; treatment group, three of 12 rats, not in control animals): 25%
in vitro viability [4]: 27.8±4.2%
Days post implant (range) ([5]; Cilengitide + RT, at 4 months): 131 (≥131) days
Tumor volume (mm^3) median (histologic, Alu ISH) ([5]; Cilengitide + RT, at 4 months): 0.10 (0.06-0.14) mm^3
Tumor volume (mm^3) median (histologic, Alu ISH) ([5]; Cilengitide alone, at time of symptoms): 175 (158-208) mm^3
MRI finding of rat brain ([5]; Cilengitide alone, representative animal imaged at 17d): contrast-enhancing tumor is visible
Days post implant (range) ([5]; Cilengitide alone, time of symptoms): 40 (40-41) days
MRI finding of rat brain ([5]; Cilengitide+RT, representative animal imaged at 68 days (T2-MRI)): no tumor is visible
Median Survival [5, 6]: > 154 days
Median Survival in Days [5, 6]: >154 vs 113 Days
